Here are results for 13 molecules from patent publication US7390910B2, “Compounds for treating tumors” (priority 2003, dated 2008).

Assay [1] concerns Colo205. The assay is described as follows: Cell survival assay (SRB), Colo205. The format is cell-based. Conditions: Colo205 cells, 3 days. As for the experimental part: (§1) Cell Survival Assay: Standard Pharmacological Test Procedure. […] Compounds are incubated with cells for 3 days.
In assay [2] the test system is bovine microtubule-associated protein (MAP)-rich tubulin. Type of assay: biochemical. The method, boiled down:
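This in vitro polymerization assay used bovine tubulin rich in microtubule-associated proteins, prepared at 1.5 mg/ml in GPEM (PEM buffer containing 1 mM GTP) and cleared by a 12,000×g spin. Tubulin solution (100 μl/well) was dispensed onto duplicate 10 μl test samples. Control wells held 0.3% DMSO. A SpectraMax Plus reader recorded turbidity at 340 nm every minute over 60 min at 24° C.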

Assay [3] deals with KBV1. The assay is described as follows: cells. The format is cell-based. The note with it: for pIC50: 3 days, SRB; for inhibition at 3 µM: KB-V1, 3000 nM. As to the method: as §1
Assay [4] has as its system KB85. The assay is described as follows: cells. The format is cell-based. Conditions: for pIC50: 3 days, SRB. As to the method:
as §1

Assay [5] concerns KB cells. The assay is described as follows: cells. The format is cell-based. The note with it: for pIC50: 3 days, SRB. As to the method: as §1

pIC50: −log10 of the molar value. Marks after values point to notes of the source that are not given here.

Usually pIC50 stands for the negative decadic logarithm of the IC50, by convention in mol/L. Read a high pIC50 as a small IC50. Broadly, the inhibition is the relative decrease from the control value, in per cent. A low value points to a weak effect.

On to `CCC(C(=O)N[C@H](C(=O)N(C)[C@H](/C=C(\C)C(=O)O)C(C)C)C(C)(C)C)C(C)(C)c1ccccc1` (stereo partly drawn) [Example 100, (E,4S)-4-[((2S)-3,3-dimethyl-2-{[3-methyl-2-ethyl-3-phenylbutanoyl]amino}butanoyl)(methyl)amino]-2,5-dimethyl-2-hexenoic acid], for which the negative-log IC50 (pIC50) in assay [1] (Homo sapiens, COLO 205, 72 h) is 6.72; in assay [3] (Homo sapiens, KB-V1, 72 h), 5.28; in assay [4] (72 h), 5.94; in assay [5] (Homo sapiens, KB, 72 h), 6.02. Besides, the “Tubulin Polym. % inhibition at 0.3 uM” value in assay [2] is recorded as 54%.

With `C/C(=C\[C@H](C(C)C)N(C)C(=O)[C@@H](NC(=O)C(C(C)(C)c1ccccc1)S(C)(=O)=O)C(C)(C)C)C(=O)O` (stereo partly drawn) [Example 103, (E,4S)-4-[((2S)-3,3-dimethyl-2-{[3-methyl-2-methylsulfonyl-3-phenylbutanoyl]amino}butanoyl)(methyl)amino]-2,5-dimethyl-2-hexenoic acid], the negative-log IC50 (pIC50) in assay [1] (Homo sapiens, COLO 205, 72 h) was 6.12; in assay [4] (72 h), 5.78; in assay [5] (Homo sapiens, KB, 72 h) it was 5.76. Further, the “Tubulin Polym. % inhibition at 0.3 uM” value in assay [2] turned out to be 80%. Moreover, the inhibition at 3 µM in assay [3] (Homo sapiens) turned out to be 5%; in assay [4] (3000 nM) it was 30%.

For the molecule `C/C(=C\[C@H](C(C)C)N(C)C(=O)[C@@H](NC(=O)[C@H](O)C(C)(C)c1ccccc1)C(C)(C)C)C(=O)O` [Example 108, (E,4S)-4-[{N-[(2R)-2-hydroxy-3-methyl-3-phenylbutanoyl]-3-methyl-L-valyl}(methyl)amino]-2,5-dimethyl-2-hexenoic acid], the pIC50 was less than 6.00 in assay [1] (Homo sapiens, COLO 205, 72 h); less than 5.52 in assay [3] (Homo sapiens, KB-V1, 72 h); less than 5.52 in assay [4] (72 h); less than 5.52 in assay [5] (Homo sapiens, KB, 72 h). The “Tubulin Polym. % inhibition at 0.3 uM” value in assay [2] came to 21%.

For the molecule `CCOC(=O)/C(C)=C/[C@H](C(C)C)N(C)C(=O)[C@@H](NC(=O)[C@@H](C)C(C)(C)c1ccccc1)C(C)(C)C` [Example 91, Ethyl (E,4S)-4-[((2S)-2-{[(2S)-2,3-dimethyl-3-phenylbutanoyl]amino}-3,3-dimethylbutanoyl)(methyl)amino]-2,5-dimethyl-2-hexenoate], the pIC50 in assay [1] (Homo sapiens, COLO 205, 72 h) was less than 6.00; in assay [3] (Homo sapiens, KB-V1, 72 h) it was less than 5.52; in assay [4] (72 h), less than 5.52. Moreover, in assay [2] (2 uM), the “Tubulin Polym. % inhibition at 2 uM” value is recorded as 84**** %. Also, the inhibition at 3 µM in assay [5] (Homo sapiens, 72 h, 3000 nM) is 21%.

For the molecule `CCOC(=O)/C(C)=C/[C@H](C(C)C)N(C)C(=O)[C@@H](NC(=O)C(Cc1ccccc1)C(C)(C)c1ccccc1)C(C)(C)C` (stereo partly drawn) [Example 95, Ethyl (E,4S)-4-[((2S)-3,3-dimethyl-2-{[3-methyl-2-(benzyl)-3-phenylbutanoyl]amino}butanoyl)(methyl)amino]-2,5-dimethyl-2-hexenoate], the pIC50 in assay [1] (Homo sapiens, COLO 205, 72 h) is less than 6.00; in assay [4] (72 h), 6.12; in assay [5] (Homo sapiens, KB, 72 h) it was 6.24. The molecule also yielded an inhibition at 3 µM in assay [3] (Homo sapiens) of 15%.

As to `CO[C@@H](C(=O)N[C@H](C(=O)N(C)[C@H](/C=C(\C)C(=O)O)C(C)C)C(C)(C)C)C(C)(C)c1ccccc1` [Example 106, (E,4S)-4-[{N-[(2R)-2-methoxy-3-methyl-3-phenylbutanoyl]-3-methyl-L-valyl}(methyl)amino]-2,5-dimethyl-2-hexenoic acid], the pIC50 was 6.03 in assay [1] (Homo sapiens, COLO 205, 72 h); 5.91 in assay [4] (72 h); 5.85 in assay [5] (Homo sapiens, KB, 72 h). Moreover, the “Tubulin Polym. % inhibition at 0.3 uM” value in assay [2] was found to be 54%. The molecule further came in with an inhibition at 3 µM in assay [3] (Homo sapiens) of 22%.

Regarding “(E,4S)-4-[((2S)-2-{[(2S)-2-azido-3-methyl-3-phenylbutanoyl]amino}-3,3-dimethylbutanoyl)(methyl)amino]-2,5-dimethyl-2-hexenoic acid and (E,4S)-4-[((2S)-2-{[(2R)-2-azido-3-methyl-3-phenylbutanoyl]amino}-3,3-dimethylbutanoyl)(methyl)amino]-2,5-dimethyl-2-hexenoic acid [Example 94]”, the pIC50 in assay [1] was 6.34; in assay [4], 5.88; in assay [5] it was 5.89. Besides, the “Tubulin Polym. % inhibition at 0.3 uM” value in assay [2] is given as 73%. Moreover, the “KBV1 % inhibition @ 3000 nM” value in assay [3] (3000 nM) was 30%(2).

Regarding `C=CCC(C(=O)N[C@H](C(=O)N(C)[C@H](/C=C(\C)C(=O)OCC)C(C)C)C(C)(C)C)C(C)(C)c1ccccc1` (stereo partly drawn) [Example 97, Ethyl (E,4S)-4-[((2S)-3,3-dimethyl-2-{[3-methyl-2-allyl-3-phenylbutanoyl]amino}butanoyl)(methyl)amino]-2,5-dimethyl-2-hexenoate], the pIC50 in assay [1] (Homo sapiens, COLO 205, 72 h) is less than 6.00; in assay [4] (72 h) it was 5.48; in assay [5] (Homo sapiens, KB, 72 h) it was 5.72. Besides, in assay [3], the “KBV1 % inhibition @6000” value is on record as 17%@6000.

Consider `CCOC(=O)/C(C)=C/[C@H](C(C)C)N(C)C(=O)[C@@H](NC(=O)C(CC)C(C)(C)c1ccccc1)C(C)(C)C` (stereo partly drawn) [Example 99, Ethyl (E,4S)-4-[((2S)-3,3-dimethyl-2-{[3-methyl-2-ethyl-3-phenylbutanoyl]amino}butanoyl)(methyl)amino]-2,5-dimethyl-2-hexenoate], for which the pIC50 is less than 6.00 in assay [1] (Homo sapiens, COLO 205, 72 h); 5.44 in assay [4] (72 h); 5.46 in assay [5] (Homo sapiens, KB, 72 h). Moreover, in assay [3], the “KBV1 % inhibition @6000” value turned out to be 16%@6000.

For `CCOC(=O)/C(C)=C/[C@H](C(C)C)N(C)C(=O)[C@@H](NC(=O)C(SC)C(C)(C)c1ccccc1)C(C)(C)C` (stereo partly drawn) [Example 101, Ethyl (E,4S)-4-[((2S)-3,3-dimethyl-2-{[3-methyl-2-methylsulfanyl-3-phenylbutanoyl]amino}butanoyl)(methyl)amino]-2,5-dimethyl-2-hexenoate], the pIC50 in assay [1] (Homo sapiens, COLO 205, 72 h) is less than 6.00; in assay [3] (Homo sapiens, KB-V1, 72 h), 5.34; in assay [4] (72 h), 5.74; in assay [5] (Homo sapiens, KB, 72 h), 5.96.

For the molecule `CN[C@H](C(=O)N[C@H](C(=O)N(C)[C@H](/C=C(\C)C(=O)N(C)OC)C(C)C)C(C)(C)C)C(C)(C)c1ccccc1` [Example 52, N,β,β-trimethyl-L-phenylalanyl-N^1-{(1S,2E)-1-isopropyl-4-[methoxy(methyl)-amino]-3-methyl-4-oxobut-2-enyl}-N^1,3-dimethyl-L-valinamide], in assay [2], the “Tubulin Polym. % inhibition at 0.3 uM” value is reported as 86%. The negative-log IC50 (pIC50) is 6.41 in assay [3] (Homo sapiens, KB-V1, 72 h); 7.33 in assay [4] (72 h); 7.96 in assay [5] (Homo sapiens, KB, 72 h).

`CN[C@H](C(=O)N[C@H](C(=O)N(C)[C@H](/C=C(\C)C(=O)N1CCC[C@H]1C(=O)OC)C(C)C)C(C)(C)C)C(C)(C)c1cc(C)cc(C)c1` [Example 19, N,β,β,3,5-Pentamethyl-L-phenylalanyl-N^1-{(1S,2E)-4-[(2S)-2-(methoxycarbonyl)pyrrolidin-1-yl]-1-isopropyl-3-methyl-4-oxobut-2-enyl}-N^1,3-dimethyl-L-valinamide]: the “Tubulin Polym. % inhibition at 0.3 uM” value in assay [2] is recorded as 66%. The negative logarithm of the IC50 (pIC50) was 5.81 in assay [3] (Homo sapiens, KB-V1, 72 h); 7.30 in assay [4] (72 h); 8.23 in assay [5] (Homo sapiens, KB, 72 h).

`CN[C@H](C(=O)N[C@H](C(=O)N(C)[C@H](/C=C(\C)C=O)C(C)C)C(C)(C)C)C(C)(C)c1ccc([S+](C)C)cc1.O=C(O)C(F)(F)F` [Example 83, 4-(dimethylsulfonio)-N,β,β-trimethyl-L-phenylalanyl-N^1-[(1S,2E)-1-isopropyl-3-methyl-4-oxo-2-butenyl]-N^1,3-dimethyl-L-valinamide trifluoroacetic acid]: the pIC50 was 7.34 in assay [1] (Homo sapiens, COLO 205, 72 h); less than 5.52 in assay [3] (trifluoroacetic acid); 5.62 in assay [3] (Homo sapiens, KB-V1, 72 h). For the same molecule, the “Tubulin Polym. % inhibition at 0.3 uM” value in assay [2] stood at 0%.
